We go through 17 compounds from BindingDB's records for doi:10.1016/j.bmcl.2003.12.089 (Ligand Pharmaceuticals, 2004).

The Ki is the equilibrium dissociation constant of an inhibitor or competing ligand from its target. A high value points to weaker binding.

For experiment [1], the target named is Retinoic acid receptor beta (Homo sapiens) (UniProt P10826). Briefly: Binding affinity against retinoic acid receptor beta by [3H]ATRA displacement.
Experiment [2] has as its target Retinoic acid receptor gamma (Homo sapiens) (UniProt P13631). Briefly: Binding affinity against retinoic acid receptor gamma by [3H]ATRA displacement.

Retinoic acid receptor gamma (Homo sapiens), sequence (P13631 whole entry, looked up): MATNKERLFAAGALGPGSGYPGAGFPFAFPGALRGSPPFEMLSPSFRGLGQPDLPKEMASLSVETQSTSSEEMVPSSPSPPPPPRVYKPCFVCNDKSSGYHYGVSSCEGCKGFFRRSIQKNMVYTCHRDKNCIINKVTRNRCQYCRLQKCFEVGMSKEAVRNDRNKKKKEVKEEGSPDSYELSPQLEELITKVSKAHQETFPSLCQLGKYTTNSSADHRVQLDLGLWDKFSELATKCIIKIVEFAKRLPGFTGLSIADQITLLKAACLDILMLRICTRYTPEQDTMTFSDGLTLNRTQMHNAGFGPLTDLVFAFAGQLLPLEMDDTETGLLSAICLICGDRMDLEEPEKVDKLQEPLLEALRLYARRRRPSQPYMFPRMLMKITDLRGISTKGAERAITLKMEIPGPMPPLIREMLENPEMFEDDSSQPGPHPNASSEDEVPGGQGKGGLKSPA
Retinoic acid receptor beta (Homo sapiens), sequence (P10826 whole entry, looked up): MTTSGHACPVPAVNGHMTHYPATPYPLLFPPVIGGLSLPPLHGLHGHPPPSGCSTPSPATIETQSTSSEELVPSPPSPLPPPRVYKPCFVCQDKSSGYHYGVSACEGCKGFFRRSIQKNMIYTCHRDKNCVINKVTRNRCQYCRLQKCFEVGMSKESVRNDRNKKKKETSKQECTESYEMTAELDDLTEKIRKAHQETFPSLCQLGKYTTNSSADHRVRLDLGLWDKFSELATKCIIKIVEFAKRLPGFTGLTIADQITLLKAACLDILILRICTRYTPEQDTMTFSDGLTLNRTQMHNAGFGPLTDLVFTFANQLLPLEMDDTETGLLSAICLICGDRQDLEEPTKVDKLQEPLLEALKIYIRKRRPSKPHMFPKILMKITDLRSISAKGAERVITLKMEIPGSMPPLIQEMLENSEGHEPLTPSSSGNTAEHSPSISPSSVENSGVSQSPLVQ

In the case of `C/C(=C/C=C/C(C)=C/C(=O)O)c1cc(C(C)(C)C)cc(C(C)(C)C)c1OCC(F)F` [7-[3,5-Di-tert-butyl-2-(2,2-difluoro-ethoxy)-phenyl]-3-methyl-octa-2,4,6-trienoic acid], the inhibition constant (Ki) in experiment [1] and in experiment [2] was > 1 µM in each case.
As to `CCOc1c(-c2cccc3sc(/C(C)=C/C(=O)O)cc23)cc(C(C)C)cc1C(C)C` [(E)-3-[4-(2-Ethoxy-3,5-diisopropyl-phenyl)-benzo[b]thiophen-2-yl]-but-2-enoic acid], the Ki in experiment [1] is 5.94 µM; in experiment [2] it was 10 µM.
In the same order, the values of `CCCCCCCOc1c(-c2cccc3sc(/C(C)=C/C(=O)O)cc23)cc(C(C)(C)C)cc1C(C)(C)C` [(E)-3-[4-(3,5-Di-tert-butyl-2-heptyloxy-phenyl)-benzo[b]thiophen-2-yl]-but-2-enoic acid] are > 10 µM and > 10 µM.
In the same order, the values of `C/C(=C\C(=O)O)c1cc2c(-c3cc(C(C)(C)C)cc(C(C)(C)C)c3C)cccc2s1` [(E)-3-[4-(3,5-Di-tert-butyl-2-methyl-phenyl)-benzo[b]thiophen-2-yl]-but-2-enoic acid] are > 10 µM and > 10 µM.
As to `CCCOc1c(-c2cccc3sc(/C(C)=C/C(=O)O)cc23)cc(C(C)C)cc1C(C)C` [(E)-3-[4-(3,5-Diisopropyl-2-propoxy-phenyl)-benzo[b]thiophen-2-yl]-but-2-enoic acid], the Ki in experiment [1] and in experiment [2] was > 10 µM throughout.
`CCOc1c(-c2cccc3cc(/C(C)=C/C(=O)O)sc23)cc(C(C)C)cc1C(C)C` [(E)-3-[7-(2-Ethoxy-3,5-diisopropyl-phenyl)-benzo[b]thiophen-2-yl]-but-2-enoic acid]: the Ki in experiment [2] was > 10 µM.
With `CCOc1c(-c2cccc3cc(/C(C)=C/C(=O)O)oc23)cc(C(C)C)cc1C(C)C` [(E)-3-[7-(2-Ethoxy-3,5-diisopropyl-phenyl)-benzofuran-2-yl]-but-2-enoic acid], the Ki in experiment [1] and in experiment [2] was > 10 µM throughout.
Regarding `CCCOc1c(-c2cccc3cc(/C(C)=C/C(=O)O)oc23)cc(C(C)C)cc1C(C)C` [(E)-3-[7-(3,5-Diisopropyl-2-propoxy-phenyl)-benzofuran-2-yl]-but-2-enoic acid], the Ki in experiment [1] was 9.2 µM; in experiment [2] it was > 10 µM.
In the same order, the values of `C/C(=C\C(=O)O)c1cc2c(-c3cc(C(C)(C)C)cc(C(C)(C)C)c3OCC(F)(F)F)cccc2s1` [(E)-3-{4-[3,5-Di-tert-butyl-2-(2,2,2-trifluoro-ethoxy)-phenyl]-benzo[b]thiophen-2-yl}-but-2-enoic acid] are > 10 µM and > 10 µM.
As for `C/C(=C\C(=O)O)c1cc2c(-c3cc(C(C)(C)C)cc(C(C)(C)C)c3OCC(F)F)cccc2s1` [(E)-3-{4-[3,5-Di-tert-butyl-2-(2,2-difluoro-ethoxy)-phenyl]-benzo[b]thiophen-2-yl}-but-2-enoic acid], the inhibitory constant (Ki) in experiment [1] and in experiment [2] was > 10 µM throughout.
In the case of `C/C(=C\C(=O)O)c1cc2c(-c3cc(C(C)(C)C)cc(C(C)(C)C)c3OCCC(F)F)cccc2s1` [(E)-3-{4-[3,5-Di-tert-butyl-2-(3,3-difluoro-propoxy)-phenyl]-benzo[b]thiophen-2-yl}-but-2-enoic acid], the Ki in experiment [1] and in experiment [2] was > 10 µM throughout.
With `C/C(=C\C(=O)O)c1cc2c(-c3cc(C(C)(C)C)cc(C(C)(C)C)c3OCCCF)cccc2s1` [(E)-3-{4-[3,5-Di-tert-butyl-2-(3-fluoro-propoxy)-phenyl]-benzo[b]thiophen-2-yl}-but-2-enoic acid], the inhibition constant (Ki) in experiment [1] and in experiment [2] was > 10 µM throughout.
In the case of `C/C(=C\C(=O)O)c1cc2cccc(-c3cc(C(C)C)cc(C(C)C)c3OCC(F)F)c2o1` [(E)-3-{7-[2-(2,2-Difluoro-ethoxy)-3,5-diisopropyl-phenyl]-benzofuran-2-yl}-but-2-enoic acid], the Ki in experiment [1] and in experiment [2] was > 10 µM in each case.
Regarding `C/C(=C\C(=O)O)c1cc2cccc(-c3cc(C(C)C)cc(C(C)C)c3OCCCF)c2o1` [(E)-3-{7-[2-(3-Fluoro-propoxy)-3,5-diisopropyl-phenyl]-benzofuran-2-yl}-but-2-enoic acid], the Ki in experiment [1] and in experiment [2] was > 10 µM in each case.
With `C/C(=C\C(=O)O)c1cc2cccc(-c3cc(C(C)C)cc(C(C)C)c3OCC(F)(F)F)c2o1` [(E)-3-{7-[3,5-Diisopropyl-2-(2,2,2-trifluoro-ethoxy)-phenyl]-benzofuran-2-yl}-but-2-enoic acid], the inhibition constant (Ki) is 2.7 µM in experiment [1] and > 10 µM in experiment [2].
Turning to `CCCCOc1c(-c2cccc3cc(/C(C)=C(\F)C(=O)O)oc23)cc(C(C)C)cc1C(C)C` [(Z)-3-[7-(2-Butoxy-3,5-diisopropyl-phenyl)-benzofuran-2-yl]-2-fluoro-but-2-enoic acid], the Ki in experiment [1] and in experiment [2] was > 10 µM in each case.
For `C/C(=C(/F)C(=O)O)c1cc2cccc(-c3cc(C(C)C)cc(C(C)C)c3OCC(F)F)c2o1` [(Z)-3-{7-[2-(2,2-Difluoro-ethoxy)-3,5-diisopropyl-phenyl]-benzofuran-2-yl}-2-fluoro-but-2-enoic acid], the Ki in experiment [1] and in experiment [2] was > 10 µM each time.
